Results on 11 compounds are retold here after patent publication US10596150B2, “Antifungal agents” (F2G LIMITED, priority 2014, dated 2020).

≈ marks a conversion by molar mass, not a printed value.

Experiment in all cases: Minimum Inhibitory Concentration (MIC), RPMI medium
What all share (format): cell-based

One assay has as its system A. fumigatus. The settings on record: Aspergillus fumigatus, >80% growth inhibition. The procedure: (§1) Between 1 and 5 mgs of the compound were accurately weighed out into a sterile Eppendorf tube. The compound was dissolved in DMSO to give a solution containing 5 mg/mL. Tubes were stored at −20° C. until required.
(§2) On the day of testing thawed solutions were vortex mixed to ensure homogeneity. 30 μL of solution was removed and added to 570 μL of sterile water in a separate sterile Eppendorf. The thoroughly mixed solution was used to prepare a series of doubling dilutions in water, in a deep well plate. Thirteen replicate plates were prepared using a Minitrak by aspirating 20 μL from each well into eleven clear polystyrene 96 well plates.
(§3) Spores of Aspergillus and Scedosporium were harvested from cultures grown on Sabarauds agar for 5 days, and resuspended in PBS/Tween 80 to approx 1×10^7 cfu/mL. Each organism suspension was diluted in RPMI medium, containing 2% glucose and 0.135 M MOPS buffer (pH 7.0) to 0.5-2×10^4 cfu/mL. 80 μL of an organism suspension was added to each well of the plate containing drug dilutions.
(§4) This produced MIC plates with a drug range 50-0.05 mg/L and organism inocula of 1-2×10^4 cfu/mL. All plates were incubated for 24-48 h at 35° C. Growth was assessed by monitoring the optical density at 485 nm for each well. The MIC of a compound is the lowest drug concentration that inhibits growth of an organism by >80% compared with a drug free control.

Another assay relates to A. fumigatus 210. Conditions: Aspergillus fumigatus, >80% growth inhibition. On the procedure:
as §1, §2, §3, §4

The next assay deals with A. niger. The settings on record: Aspergillus niger, >80% growth inhibition. The procedure:
as §1, §2, §3, §4

For the next assay, the system named is A. terreus 49. The settings on record: Aspergillus terreus, >80% growth inhibition. On the procedure: as §1, §2, §3, §4
A further assay has as its system A. terreus. Conditions: Aspergillus terreus, >80% growth inhibition. The procedure:
as §1, §2, §3, §4

Another assay deals with A. flavus. The settings on record: Aspergillus flavus, >80% growth inhibition. On the procedure: as §1, §2, §3, §4
The subject of assay [1] is Scedosporium prolificans 206. Conditions: Lomentospora prolificans. The procedure: as §1, §2, §3, §4
Assay [2] has as its system Scedosporium apiospermum 451. The procedure: as §1, §2, §3, §4
In assay [3] the test system is Scedosporium prolificans 18389. Conditions: Lomentospora prolificans. On the procedure: as §1, §2, §3, §4
For assay [4], the system named is Scedosporium prolificans 6322. The settings on record: Lomentospora prolificans. On the procedure: as §1, §2, §3, §4
Assay [5] concerns Scedosporium apiospermum 15848. On the procedure: as §1, §2, §3, §4
For assay [6], the system named is Scedosporium apiospermum 7935. On the procedure:
as §1, §2, §3, §4

Assay [7] concerns Scedosporium apiospermum 13486. The procedure: as §1, §2, §3, §4
Assay [8] deals with Scedosporium species 15849. The procedure:
as §1, §2, §3, §4

Assay [9] relates to Scedosporium apiospermum 8353. The procedure: as §1, §2, §3, §4
The subject of assay [10] is Scedosporium apiospermum 4883. On the procedure: as §1, §2, §3, §4

Usually MIC stands for the smallest concentration in the dilution series that meets the test's criterion for growth inhibition. Lower therefore signals a more susceptible organism. For the compound `[2H]C1([2H])N(c2ccc(NC(=O)C(=O)c3c(-c4ccccc4)cc(C)n3C)cc2)C([2H])([2H])C([2H])([2H])N(c2ncc(F)cn2)C1([2H])[2H]` [Example 3, 2-(1,5-dimethyl-3-phenyl-1H-pyrrol-2-yl)-N-(4-(4-(5-fluoropyrimidin-2-yl)piperazin-1-yl-2,2,3,3,5,5,6,6-d8)phenyl)-2-oxoacetamide], the MIC against A. fumigatus, in the assay with A. fumigatus 210, against A. niger, with A. terreus 49, in the assay with A. terreus and against A. flavus was 0.04 to 0.06 µg/mL (≈ 0.079 to 0.118 µM) each time.
With `[2H]c1c([2H])c(N2CCN(c3ncc(F)cn3)CC2)c([2H])c([2H])c1NC(=O)C(=O)c1c(-c2ccccc2)cc(C)n1C` [Example 4, 2-(1,5-dimethyl-3-phenyl-1H-pyrrol-2-yl)-N-(4-(4-(5-fluoropyrimidin-2-yl)piperazin-1-yl)phenyl-2,3,5,6-d4)-2-oxoacetamide], the minimum inhibitory concentration (MIC) in the assay on A. fumigatus, in the assay on A. fumigatus 210, in the assay with A. niger, against A. terreus 49, against A. terreus and in the assay on A. flavus was 0.04 to 0.06 µg/mL (≈ 0.0796 to 0.119 µM) each time.
Regarding `Cc1cc(-c2ccccc2)c(C(=O)C(=O)Nc2ccc(N3CCN(c4ccccn4)CC3)c(F)c2)n1C` [Ref. Example 1, 2-(1,5-Dimethyl-3-phenyl-1H-pyrrol-2-yl)-N-[3-fluoro-4-(4-pyridin-2-yl-piperazin-1-yl)-phenyl]-2-oxo-acetamide], the MIC is 0.04 to 0.06 µg/mL (≈ 0.0804 to 0.121 µM) in the assay on A. fumigatus; 0.04 to 0.06 µg/mL (≈ 0.0804 to 0.121 µM) in the assay on A. fumigatus 210; 0.04 to 0.06 µg/mL (≈ 0.0804 to 0.121 µM) in the assay on A. niger; 0.04 to 0.06 µg/mL (≈ 0.0804 to 0.121 µM) against A. terreus 49; 0.04 to 0.06 µg/mL (≈ 0.0804 to 0.121 µM) against A. terreus; greater than 0.06 µg/mL with A. flavus.
Regarding `Cc1cc(-c2ccccc2)c(C(=O)C(=O)Nc2ccc(N3CCN(c4ccccn4)CC3)cc2F)n1C` [Ref. Example 2, 2-(1,5-Dimethyl-3-phenyl-1H-pyrrol-2-yl)-N-[2-fluoro-4-(4-pyridin-2-yl-piperazin-1-yl)-phenyl]-2-oxo-acetamide], the minimum inhibitory concentration (MIC) in the assay on A. fumigatus, in the assay with A. fumigatus 210, in the assay on A. niger, against A. terreus 49, against A. terreus and with A. flavus was 0.04 to 0.06 µg/mL (≈ 0.0804 to 0.121 µM) in each case.
In the case of `Cc1cc(C)nc(N2CCN(c3ccc(NC(=O)C(=O)c4c(-c5ccccc5)cc(C)n4C)cc3C)CC2)c1` [Ref. Example 3, 2-(1,5-Dimethyl-3-phenyl-1H-pyrrol-2-yl)-N-{4-[4-(4,6-dimethyl-pyridin-2-yl)-piperazin-1-yl]-3-methyl-phenyl}-2-oxo-acetamide], the minimal inhibitory concentration (MIC) in the assay on A. fumigatus, against A. fumigatus 210, in the assay on A. niger, against A. terreus 49, in the assay on A. terreus and against A. flavus was 0.04 to 0.06 µg/mL (≈ 0.0767 to 0.115 µM) each time.
As to `Cc1ccnc(N2CCN(c3ccc(NC(=O)C(=O)c4c(-c5ccccc5)cc(C)n4C)cc3)CC2)c1` [Ref. Example 4, 2-(1,5-Dimethyl-3-phenyl-1H-pyrrol-2-yl)-N-{4-[4-(4-methyl-pyridin-2-yl)-piperazin-1-yl]-phenyl}-2-oxo-acetamide], the MIC against A. fumigatus, with A. fumigatus 210, with A. niger, against A. terreus 49, in the assay with A. terreus and in the assay with A. flavus was 0.04 to 0.06 µg/mL (≈ 0.081 to 0.122 µM) throughout.
Take `Cc1cccc(N2CCN(c3ccc(NC(=O)C(=O)c4c(-c5ccccc5)cc(C)n4C)cc3)CC2)n1` [Ref. Example 5, 2-(1,5-Dimethyl-3-phenyl-1H-pyrrol-2-yl)-N-{4-[4-(6-methyl-pyridin-2-yl)-piperazin-1-yl]-phenyl}-2-oxo-acetamide]: the MIC in the assay on A. fumigatus is 0.04 to 0.06 µg/mL (≈ 0.081 to 0.122 µM); against A. fumigatus 210 it was 0.04 to 0.06 µg/mL (≈ 0.081 to 0.122 µM); in the assay on A. niger, greater than 0.06 µg/mL; in the assay on A. terreus 49, 0.04 to 0.06 µg/mL (≈ 0.081 to 0.122 µM); against A. terreus it was 0.04 to 0.06 µg/mL (≈ 0.081 to 0.122 µM); against A. flavus it was 0.04 to 0.06 µg/mL (≈ 0.081 to 0.122 µM).
Regarding `Cc1cc(-c2ccccc2)c(C(=O)C(=O)Nc2ccc(N3CCN(c4ccccn4)CC3)cc2)n1C` [Ref. Example 6, 2-(1,5-Dimethyl-3-phenyl-1H-pyrrol-2-yl)-2-oxo-N-[4-(4-pyridin-2-yl-piperazin-1-yl)-phenyl]-acetamide], the MIC is 0.04 to 0.06 µg/mL (≈ 0.0834 to 0.125 µM) against A. fumigatus; 0.04 to 0.06 µg/mL (≈ 0.0834 to 0.125 µM) against A. fumigatus 210; greater than 0.06 µg/mL in assay [1]; greater than 0.06 µg/mL in assay [2]; greater than 0.06 µg/mL in assay [3]; greater than 0.06 µg/mL in assay [4]. In addition, the minimum inhibitory concentration (MIC) with A. niger was greater than 0.06 µg/mL; in assay [5], greater than 0.06 µg/mL; in assay [6] it was greater than 0.06 µg/mL; in [7] (Scedosporium apiospermum, 13486), greater than 0.06 µg/mL; in the assay with A. terreus 49, 0.04 to 0.06 µg/mL (≈ 0.0834 to 0.125 µM); against A. terreus it was 0.04 to 0.06 µg/mL (≈ 0.0834 to 0.125 µM). Also, the minimal inhibitory concentration (MIC) in assay [8] was greater than 0.06 µg/mL; in assay [9] it was greater than 0.06 µg/mL; with A. flavus, 0.04 to 0.06 µg/mL (≈ 0.0834 to 0.125 µM); in [10] it was greater than 0.06 µg/mL. Moreover, the “MIC Scedosporium apiospermum 13486” value in [7] was “F (a grade of F represents an MIC of greater than 0.06 mg/L)”.
Consider `Cc1cc(C)nc(N2CCN(c3ccc(NC(=O)C(=O)c4c(-c5ccccc5)cc(C)n4C)cc3O)CC2)c1` [Ref. Example 7, 2-(1,5-Dimethyl-3-phenyl-1H-pyrrol-2-yl)-N-{4-[4-(4,6-dimethyl-pyridin-2-yl)-piperazin-1-yl]-3-hydroxy-phenyl}-2-oxo-acetamide], for which the minimum inhibitory concentration (MIC) against A. fumigatus is greater than 0.06 µg/mL; against A. fumigatus 210, greater than 0.06 µg/mL; against A. niger it was greater than 0.06 µg/mL; in the assay on A. terreus 49 it was greater than 0.06 µg/mL; in the assay on A. terreus, greater than 0.06 µg/mL; against A. flavus, 0.04 to 0.06 µg/mL (≈ 0.0764 to 0.115 µM).
On to `Cc1cc(C)nc(N2CCN(c3ccc(NC(=O)C(=O)c4c(-c5ccccc5)cc(C)n4C)c(Cl)c3)CC2)c1` [Ref. Example 8, N-{2-Chloro-4-[4-(4,6-dimethyl-pyridin-2-yl)-piperazin-1-yl]-phenyl}-2-(1,5-dimethyl-3-phenyl-1H-pyrrol-2-yl)-2-oxo-acetamide], for which the minimum inhibitory concentration (MIC) with A. fumigatus, against A. fumigatus 210, in the assay with A. niger, with A. terreus 49, in the assay with A. terreus and with A. flavus was 0.04 to 0.06 µg/mL (≈ 0.0738 to 0.111 µM) throughout.
As for `Cc1cc(C)nc(N2CCN(c3ccc(NC(=O)C(=O)c4c(-c5ccccc5)cc(C)n4C)cc3Cl)CC2)c1` [Ref. Example 9, N-{3-Chloro-4-[4-(4,6-dimethyl-pyridin-2-yl)-piperazin-1-yl]-phenyl}-2-(1,5-dimethyl-3-phenyl-1H-pyrrol-2-yl)-2-oxo-acetamide], the MIC in the assay with A. fumigatus, in the assay with A. fumigatus 210, against A. niger, in the assay with A. terreus 49, against A. terreus and against A. flavus was 0.04 to 0.06 µg/mL (≈ 0.0738 to 0.111 µM) each time.
